{"source": "patent US8541460B2", "about": "“PDK-1/Akt signaling inhibitors” (The Ohio State University, priority 2003, dated 2013)", "system": "PC-3 cells", "experiment": "PC-3 cell viability analysis (MTT)", "assay_type": "cell-based, human", "conditions": "inducing apoptotic death in PC-3 cells / PC-3 cell viability; read-out: IC50 PC-3", "protocol": "Cell Culture PC-3 (p53−/−) human androgen-nonresponsive prostate cancer cells were purchased from the American […] (Manassas, Va.). Cells were cultured in RPMI 1640 medium (Gibco, Grand Island, N.Y.) supplemented with 10% fetal bovine serum (FBS; Gibco) at 37° C. in a humidified incubator containing 5% CO2.\nCell viability analysis The effect of 4-[5-(4-methylphenyl)-3-(trifluoromethyl)-1H-pyrazol-1-yl]benzenesulfonamide and its derivatives on PC-3 cell viability was assessed by using the MTT {[3-(4,5-dimethylthiazol-2-yl)-2,5-diphenyl-2H-tetrazolium bromide]} assay in six replicates. Cells were grown in 10% FBS-supplemented RPMI 1640 medium in 96-well, flat bottomed plates for 24 h, and were exposed to various concentrations of compounds 1-36 dissolved in DMSO (final concentration≦0.1%) in 1% serum-containing RPMI 1640 medium for different time intervals. Controls received DMSO vehicle at a concentration equal to that in drug-treated cells. The medium was removed, replaced by 200 μl of 0.5 mg/ml of MTT in 10% FBS-containing RPMI-1640 medium, and cells were incubated in the CO2 incubator at 37° C. for 2 h. Supernatants were removed from the wells, and the reduced MTT dye was solubilized in 200 μL/well DMSO. Absorbance at 570 nm was determined on a plate reader."}
{"smiles": "N=C(N)Nc1ccc(-n2nc(C(F)(F)F)cc2-c2ccc3c(ccc4ccccc43)c2)cc1", "note": "[Compound 71, 4-[5-(2-Phenanthrenyl)-3-(trifluoromethyl)-1H-pyrazol-1-yl]-phenyl-guanidine]", "values": [{"measurement": "IC50", "value": 3000, "unit": "nM"}]}
